Data from US10851065B2 (Eisai R&D Management Co., Ltd., priority 2015, dated 2020).

Experiments:
[1] = tested on: MCF7-WT cells (MCF7 ER-alpha wildtype); assay: In vitro proliferation (viability) assay, CellTiter-Glo, MCF7-WT cells; type: cell-based; settings: Homo sapiens; MCF7-WT cells, 6 days, CTG vs day 0; mean ± SD-type spread (n); read-out: GI50 WT
Experimental: (§1) MCF7 BUS cells (Coser, et al., (2003) PNAS 100(24): 13994-13999) were maintained in Dulbecco's Modified Eagle Medium supplemented with 10% FBS, 4 mM L-glutamine and 1× non-essential amino acids. Lenti-X 293T cells (Clontech, Cat #632180) were routinely cultured in Dulbecco's Modified Eagle Medium supplemented with 10% FBS.
(§2) The QuikChange II XL Site-Directed Mutagenesis Kit (Agilent Technologies, Cat #200523) was used to generate Y537S, Y537C, Y537N and D538G mutations within the ERα exon 8. Wild-type ESR1 cDNA (GeneCopoeia Inc., Cat #GC-A0322, accession no. NM 000125) was used as a template with the following mutagenesis primers (where the underlined nucleotides represent site mutations); Y537S: F-AAGAACGTGGTGCCCCTCTCTGACCTGCTGCTGGAGATG (SEQ ID NO: 1), R-CATCTCCAGCAGCAGGTCAGAGAGGGGCACCACGTTCTT (SEQ ID NO: 2); Y537N: F-AAGAACGTGGTGCCCCTCAATGACCTGCTGCTGGAGATG (SEQ ID NO: 3), R-CATCTCCAGCAGCAGGTCATTGAGGGGCACCACGTTCTT (SEQ ID NO: 4); Y537C: F-AAGAACGTGGTGCCCCTCTGTGACCTGCTGCTGGAGATG (SEQ ID NO: 5), R-CATCTCCAGCAGCAGGTCACAGAGGGGCACCACGTTCTT (SEQ ID NO: 6); D538G: F-AACGTGGTGCCCCTCTATGGCCTGCTGCTGGAGATGCTG (SEQ ID NO: 7), R-CAGCATCTCCAGCAGCAGGCCATAGAGGGGCACCACGTT (SEQ ID NO: 8). WT and mutant ESR1 cDNAs were cloned into the designation lentiviral vector pLenti6.3/V5-Dest (Invitrogen, Cat #V533-06). To make lentivirus, DNAs (WT and mutant ESR1) were co-transfected with packaging plasmids into Lenti-X 293T cells using TransIT (Mirus, Cat #MIR 2700). 48 h post-transfection, virus containing media was filtered and added to MCF7 cells in the presence of 8 µg/ml polybrene overnight. Two days following infection, cells were placed under selection with 10 μg/ml blasticidin for 2 weeks for stable expression.
(§3) MCF7-WT and -Y537S cells were seeded at 1500 cells/well in black-walled 96-well plates (assay plates, Costar, Cat #3904). In parallel, cells were also seeded in a separate 96-well plate (8 wells/cell line, control plate) for which a CTG (CellTiter-Glo® Luminescent Viability Assay, Promega, Cat #G7572) was measured the following day (day 0 reading). The day 0 reading was used for the GI50 calculation at the termination of the experiment. The day following seeding, compounds were added to assay plates. Briefly, a 1:4 serial dilution was prepared in DMSO at 200× final concentration for a total of 10 concentrations (9 dilutions containing compound and one is DMSO only). Serially diluted compounds were pipetted into medium to prepare a compound-medium mix at 10× final concentration. 10 μl of compound-medium mix was added to MCF7-WT and -Y537S cells at 3 wells/concentration (triplicate for each concentration). On day 3, media/compound was removed and replaced with fresh media/compound as described above. On day 6, CTG was measured and compared to day 0 readings from control plate to assess GI50.

[2] = tested on: MCF7-Y537S cells (MCF7 ER-alpha Y537S mutant); assay: In vitro proliferation (viability) assay, CellTiter-Glo, MCF7-Y537S cells; type: cell-based; settings: Homo sapiens; MCF7-Y537S cells, 6 days, CTG vs day 0; mean ± SD-type spread (n); read-out: GI50 MUT (Y537S)
Experimental: as §1, §2, §3

| GI50 [1] [nM] | GI50 [2] [nM] | SMILES |
| --- | --- | --- |
| 3.59 | 76.5 | CN(CCO)C(=O)/C=C/CNCCOc1ccc(/C(=C(\c2ccccc2)C2CCC2)c2ccc3[nH]nc(F)c3c2)cc1 [Compound 53, (E)-4-((2-(4-((E)-2-cyclobutyl-1-(3-fluoro-1H-indazol-5-yl)-2-phenylvinyl)phenoxy)ethyl)amino)-N-(2-hydroxyethyl)-N-methylbut-2-enamide] |
| 2.68 ± 1.66 | 69.4 ± 29.1 | Cc1ccccc1/C(=C(\c1ccc(OCCNC/C=C/C(=O)N2CCC2)cc1)c1ccc2[nH]ncc2c1)C1CCC1 [Compound 42, (E)-1-(azetidin-1-yl)-4-((2-(4-((E)-2-cyclobutyl-1-(1H-indazol-5-yl)-2-(o-tolyl)vinyl)phenoxy)ethyl)amino)but-2-en-1-one] |
| 3.78 ± 1.75 | 63.6 ± 18.4 | CN(C)C(=O)/C=C/CNCCOc1ccc(/C(=C(\c2ccccc2)C2CC2)c2ccc3[nH]ncc3c2)cc1 [Compound 56, (E)-4-((2-(4-((E)-2-cyclopropyl-1-(1H-indazol-5-yl)-2-phenylvinyl)phenoxy)ethyl)amino)-N,N-dimethylbut-2-enamide] |
| 3.16 | 69.7 | CC/C(=C(/c1ccc(OCCNC/C=C/C(=O)N(C)CCO)cc1)c1ccc2[nH]nc(F)c2c1)c1ccc(F)cc1Cl [Compound 28, (E)-4-((2-(4-((E)-2-(2-chloro-4-fluorophenyl)-1-(3-fluoro-1H-indazol-5-yl)but-1-en-1-yl)phenoxy)ethyl)amino)-N-(2-hydroxyethyl)-N-methylbut-2-enamide] |
| 1.9 | 36.2 | CC/C(=C(/c1ccc(OCCNC/C=C/C(=O)N(C)C)cc1)c1ccc2[nH]ncc2c1F)c1ccc(F)cc1Cl [Compound 57, (E)-4-((2-(4-((E)-2-(2-chloro-4-fluorophenyl)-1-(4-fluoro-1H-indazol-5-yl)but-1-en-1-yl)phenoxy)ethyl)amino)-N,N-dimethylbut-2-enamide] |
| 2 | 33.6 | CC/C(=C(/c1ccc(OCCNC/C=C/C(=O)N(C)C)cc1)c1ccc2[nH]nc(F)c2c1)c1cc(F)ccc1F [Compound 80, (E)-4-((2-(4-((E)-2-(2,5-difluorophenyl)-1-(3-fluoro-1H-indazol-5-yl)but-1-en-1-yl)phenoxy)ethyl)amino)-N,N-dimethylbut-2-enamide] |
| 4.91 | 180 | CC/C(=C(/c1ccc(OCCNC/C=C/C(=O)N(C)C)cc1)c1ccc2[nH]nc(F)c2c1)c1cccc(F)c1 [Compound 44, (E)-4-((2-(4-((E)-1-(3-fluoro-1H-indazol-5-yl)-2-(3-fluorophenyl)but-1-en-1-yl)phenoxy)ethyl)amino)-N,N-dimethylbut-2-enamide] |
| 2.42 ± 1.95 | 21.6 ± 0.26 | CC/C(=C(/c1ccc(OCCNC/C=C\C(=O)N(C)C)cc1)c1ccc2[nH]ncc2c1)c1ccccc1 [Compound 22, (Z)-4-((2-(4-((E)-1-(1H-indazol-5-yl)-2-phenylbut-1-en-1-yl)phenoxy)ethyl)amino)-N,N-dimethylbut-2-enamide] |
| 4.55 ± 3.34 | 36.3 ± 16 | CC/C(=C(/c1ccc(OCCNC/C=C/C(=O)N(C)C)cc1)c1ccc2[nH]ncc2c1F)c1ccccc1 [Compound 4, (E)-4-((2-(4-((E)-1-(4-fluoro-1H-indazol-5-yl)-2-phenylbut-1-en-1-yl)phenoxy)ethyl)amino)-N,N-dimethylbut-2-enamide] |
| 2.9 | 85.8 | CC/C(=C(/c1ccc(OCCNC/C=C/C(=O)N(C)C)cc1)c1ccc2[nH]nc(F)c2c1)c1ccncc1 [Compound 52, (E)-4-((2-(4-((E)-1-(3-fluoro-1H-indazol-5-yl)-2-(pyridin-4-yl)but-1-en-1-yl)phenoxy)ethyl)amino)-N,N-dimethylbut-2-enamide] |
| 0.7 | 12.5 | [2H]c1c([2H])c([2H])c(/C(CC)=C(\c2ccc(OCCNC/C=C/C(=O)N(C)C)cc2)c2ccc3[nH]ncc3c2)c([2H])c1[2H] [Compound 88, (E)-4-((2-(4-((E)-1-(1H-indazol-5-yl)-2-(phenyl-d5)but-1-en-1-yl)phenoxy)ethyl)amino)-N,N-dimethylbut-2-enamide] |
| 6.95 ± 2.47 | 159 ± 91.8 | CC/C(=C(/c1ccc(OCCNC/C=C/C(=O)N(C)C)cc1)c1ccc2[nH]nc(F)c2c1)c1cc(F)cc(C(F)(F)F)c1 [Compound 3, (E)-4-((2-(4-((E)-1-(3-fluoro-1H-indazol-5-yl)-2-(3-fluoro-5-(trifluoromethyl)phenyl)but-1-en-1-yl)phenoxy)ethyl)amino)-N,N-dimethylbut-2-enamide] |
| 1.69 | 36.7 | CC/C(=C(/c1ccc(OCCNC/C=C/C(=O)N2CCCCC2)cc1)c1ccc2[nH]ncc2c1)c1ccccc1 [Compound 12, (E)-4-((2-(4-((E)-1-(1H-indazol-5-yl)-2-phenylbut-1-en-1-yl)phenoxy)ethyl)amino)-1-(piperidin-1-yl)but-2-en-1-one] |
| 2.5 | 22.7 | CC/C(=C(/c1ccc(OC(C)CNC/C=C/C(=O)N(C)C)cc1)c1ccc2[nH]ncc2c1)c1ccccc1 (stereo not drawn) [Compound 90, (E)-4-((2-(4-((E)-1-(1H-indazol-5-yl)-2-phenylbut-1-en-1-yl)phenoxy)propyl)amino)-N,N-dimethylbut-2-enamide] |
| 1.28 | 22.9 | CC/C(=C(/c1ccc(OCCNC/C=C/C(=O)N(C)C)cc1)c1ccc2[nH]ncc2c1)c1ccccc1OC(F)F [Compound 32, (E)-4-((2-(4-((E)-2-(2-(difluoromethoxy)phenyl)-1-(1H-indazol-5-yl)but-1-en-1-yl)phenoxy)ethyl)amino)-N,N-dimethylbut-2-enamide] |
| 10.5 | 193 | CC/C(=C(/c1ccc(OCCNC/C=C/C(=O)N(C)C)cc1)c1ccc2[nH]nc(F)c2c1)c1ccccn1 [Compound 67, (E)-4-((2-(4-((E)-1-(3-fluoro-1H-indazol-5-yl)-2-(pyridin-2-yl)but-1-en-1-yl)phenoxy)ethyl)amino)-N,N-dimethylbut-2-enamide] |
| 1.56 ± 0.56 | 28.4 ± 2.9 | CC/C(=C(/c1ccc(OCCNCC/C=C/C(=O)N(C)C)cc1)c1ccc2[nH]nc(F)c2c1)c1ccc(F)cc1Cl [Compound 85] |
| 2.3 | 26.9 | CC/C(=C(/c1ccc(OCC(C)NC/C=C/C(=O)N(C)C)cc1)c1ccc2[nH]ncc2c1)c1ccccc1 (stereo not drawn) [Compound 92, (E)-4-((1-(4-((E)-1-(1H-indazol-5-yl)-2-phenylbut-1-en-1-yl)phenoxy)propan-2-yl)amino)-N,N-dimethylbut-2-enamide] |
| 4.65 ± 2.9 | 93.7 ± 6.3 | CC(C)/C(=C(/c1ccc(OCCNC/C=C/C(=O)N(C)C)cc1)c1ccc2[nH]nc(F)c2c1)c1ccccc1 [Compound 82, (E)-4-((2-(4-((E)-1-(3-fluoro-1H-indazol-5-yl)-3-methyl-2-phenylbut-1-en-1-yl)phenoxy)ethyl)amino)-N,N-dimethylbut-2-enamide] |
| 4.14 | 104 | CC/C(=C(/c1ccc(OCCNC/C=C/C(=O)N(C)C)cc1)c1ccc2[nH]nc(F)c2c1)c1ccc(F)cc1 [Compound 45] |
| 4 | 66 | CC/C(=C(/c1ccc(OCCNC/C=C/C(=O)N(C)C)cc1)c1ccc2[nH]nc(F)c2c1)c1ccc(F)cc1F [Compound 65, (E)-4-((2-(4-((E)-2-(2,4-difluorophenyl)-1-(3-fluoro-1H-indazol-5-yl)but-1-en-1-yl)phenoxy)ethyl)amino)-N,N-dimethylbut-2-enamide] |
